Laboratory results taken from patent US6063803A, “Octahydropyrrolo-[3,4-c]carbazoles useful as analgesic agents” (Ortho-McNeil Pharmaceutical, Inc., priority 1999, dated 2000).

Key:
α2-adrenergic receptor = biological target: T1, α2-adrenergic receptor (Rattus norvegicus, UniProt P22909); assay: α2-adrenergic receptor binding (3H-para-aminoclonidine, rat cortex synaptic membranes); set-up: species or system rat (Wistar); conditions: 25° C., 20 min
T1 construct: aliquots of the synaptic membrane fraction, the ligand; from tissue; host or cells: cerebral cortex synaptic membranes of male Wistar rats
T1 sequence (P22909 1-465): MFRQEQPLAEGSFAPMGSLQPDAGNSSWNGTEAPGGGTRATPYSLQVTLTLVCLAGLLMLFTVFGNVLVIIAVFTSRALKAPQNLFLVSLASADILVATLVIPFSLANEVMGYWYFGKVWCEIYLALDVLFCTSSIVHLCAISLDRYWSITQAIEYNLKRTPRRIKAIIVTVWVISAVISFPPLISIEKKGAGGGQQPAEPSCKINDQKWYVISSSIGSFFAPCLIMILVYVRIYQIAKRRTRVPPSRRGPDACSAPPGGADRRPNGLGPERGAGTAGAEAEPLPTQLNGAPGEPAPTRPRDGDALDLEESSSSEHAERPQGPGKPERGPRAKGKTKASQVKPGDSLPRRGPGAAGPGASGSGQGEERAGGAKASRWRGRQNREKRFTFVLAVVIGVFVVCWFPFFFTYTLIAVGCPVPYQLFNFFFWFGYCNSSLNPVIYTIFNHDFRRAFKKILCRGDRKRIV
Experimental: The α2 -adrenergic activity of the compounds was determined by the following in vitro assay. Male, Wistar rats (150-250 g, VAF, Charles River, Kingston, N.Y.) were sacrificed by cervical dislocation and their brains removed and immediately placed in ice cold HEPES buffered sucrose. The cortex was dissected out and homogenized in 20 volumes of HEPES sucrose in a Teflon®-glass homogenizer. The homogenate was centrifuged at 1000×g for 10 min, and the resulting supernatant centrifuged at 42,000×g for 10 min. The resulting pellet was resuspended in 30 volumes of 3 mM potassium phosphate buffer, pH 7.5, preincubated at 25° C. for 30 min and recentrifuged. The resulting pellet was resuspended as described above and used for the receptor binding assay. Incubation was performed in test tubes containing phosphate buffer, 2.5 mM MgCl2, aliquots of the synaptic membrane fraction, the ligand ^3 H-para-aminoclonidine and test drug at 25° C. for 20 min. The incubation was terminated by filtration of the tube contents through glass fiber filter sheets. The sheets were washed with 10 mM HEPES buffer and the adhering radioactivity was quantified by liquid scintillation spectrometry.
Dose-response data are analyzed with LIGAND, a nonlinear curve fitting program designed specifically for the analysis of ligand binding data. […]

[1] = mouse hot plate assay (48° C.); type: in vivo, mice; conditions: mouse hot plate 48° C.
Experimental: The test was essentially described by N. Eddy and D. Leimbach, Synthetic Analgesics II Dithienylbutenyl- and Dithienylbutylamines, J. Pharmacol. Exp. Ther., 107, 385-93 (1953) and J. O'Callaghan and S. Holtzman, Qualification of the Analgesic Activity of Narcotic Antagonists by a Modified Hot-Plate Procedure, J. Pharmacol. Exp. Ther, 192, 497-505 (1975), with minor modifications. Mice were placed on a heated surface (48° C.) and the time interval (seconds) between placement and a shaking, licking, or tucking of the hind paw was recorded as the predrug latency response. This procedure was repeated 30 minutes after the administration of a test compound (p.o., 10 mL/kg). The percent maximum possible antinociceptive effect (% MPE) was determined using the following formula: % MPE=100×(Test latency-Predrug latency)/(Cutoff time-Predrug Latency), using the predrug latency of each animal and cutoff time established to prevent injury to the animal. The cutoff time was 90s.
The ED50 value and 95% confidence intervals were determined using a computer-assisted linear regression analysis of the dose-response curve, including an analysis of variance test for linearity. Oral dosing of Compound 58 produced an analgesic effect after 15 min. This effect lasted for one hour.

With `CN1CC2CCc3[nH]c4ccccc4c3C2C1` (single isomer, unassigned) [Compound 58] the Ki (α2-adrenergic receptor) was 9.4 nM, the “analgesic effect, time after oral dosing” value ([1]; oral dosing) was 15 min and the ED50 ([1]; po, 0.5 h, p.o., cutoff 90s, read-out: ED50) was 14.2 mg/kg.
